In brackets after ≈: the same amount, converted by molar mass.
Each molecule was assayed on 30 strains of coliform bacilli collected from the living body of humans (assay: MIC50/MIC70 against 30 strains of coliform bacilli). Details: 70% of the 30 strains.
Assay type: cell-based
Method: The MIC of ampicillin as combined with the present compound (10 μg/ml) was measured against the same bacteria. In the method, the bacteria cultivated in Mueller Hinton Broth (product of DIFCO) and diluted to 10^7 CFU/ml were inoculated into the same medium containing ampicillin and the present compound in a specific concentration, and incubated at 37° C. for 20 hours. […] The bacteria as used in the test were those capable of producing β-lactamase, among which the bacteria marked * in the table are those collected from the living body of human hosts and the others are a stock culture.
(2) Effects by antibiotics as combined with the present compound
The compounds of the present invention, ampicillin, mecillinam, piperacillin and cephalexin, each singly used, were also tested for minimal inhibitory concentration against 30 strains of coliform bacilli collected from the living body of humans. The MIC of each antibiotic as combined with the present compound (10 μg/ml) was likewise measured. Table 3 to 6 indicate the results in which MIC50 and MIC70 indicate the minimal inhibitory concentration for inhibiting the growth of 50% and 70% respectively of the strains. The MICs of the present compounds singly used were all more than 25 μg/ml.

SMILES	MIC70, ampicillin singly used [µg/mL]
CC1(C)S[C@@H]2[C@H](NC(=O)[C@H](N)c3ccccc3)C(=O)N2[C@H]1C(=O)O [Ampicillin, ampicillin, reference compound]	400 (≈ 1140 µM)

Same assay, conditions: 70% of the 30 strains; present compound 10 μg/ml

SMILES	MIC70 of ampicillin combined with present compound [µg/mL]	MIC70 of cephalexin combined with present compound [µg/mL]	MIC70 of mecillinam combined with present compound [µg/mL]	MIC70 of piperacillin combined with present compound [µg/mL]
CCOC(=O)c1cn(C[C@@]2(C)[C@H](C(=O)O)N3C(=O)C[C@H]3S2(=O)=O)nn1 [Compound 7, sodium 2β-(4-ethoxycarbonyl-1,2,3-triazol-1-yl)methyl-2α-methylpenam-3α-carboxylate-1,1-dioxide]	50	100	0.39	6.25
CCOC(=O)c1cnnn1C[C@@]1(C)[C@H](C(=O)O)N2C(=O)C[C@H]2S1(=O)=O [Compound 11, sodium 2β-(5-ethoxycarbonyl-1,2,3-triazol-1-yl)methyl-2α-methylpenam-3α-carboxylate-1,1-dioxide]	100	100	0.39	25
C[C@]1(Cn2cc(C(=O)O)nn2)[C@H](C(=O)O)N2C(=O)C[C@H]2S1(=O)=O [Compound 16, dipotassium 2β-(4-carboxy-1,2,3-triazol-1-yl)methyl-2α-methylpenam-3α-carboxylate-1,1-dioxide]	6.25	25	0.1	3.13
C[C@]1(Cn2nncc2C(=O)O)[C@H](C(=O)O)N2C(=O)C[C@H]2S1(=O)=O [Compound 17, dipotassium 2β-(5-carboxy-1,2,3-triazol-1-yl)methyl-2α-methylpenam-3α-carboxylate-1,1-dioxide]	100	–	0.39	50
C[C@]1(Cn2ccnn2)[C@H](C(=O)O)N2C(=O)C[C@H]2S1(=O)=O [Compound 22, sodium 2α-methyl-2β-(1,2,3-triazol-1-yl)methylpenam-3α-carboxylate-1,1-dioxide]	6.25	50	0.2	1.56

From patent US4562073A, “Penicillin derivatives” (Taiho Pharmaceutical Company Limited, priority 1982, dated 1985)
